One test has as its target TYK2 JH2 domain (Homo sapiens (Human), UniProt P29597). As to the kind of experiment: TYK2 JH2 NanoBRET assay. In kind it is binding. To be noted: Table 20, read-out: TYK2 IC50. The method in brief: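 HEK293T cells transiently expressing NanoLuc-TYK2 JH2 fusion, incubated 2 h with compound and NanoBRET K10 tracer (0.5 µM final). Target engagement read as acceptor/donor BRET ratio after Nano-Glo substrate plus extracellular NanoLuc inhibitor.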

The target of a further test is human JAK3 (Homo sapiens (Human), UniProt P52333). The test is described as follows: JAK3 TR-FRET kinase assay. It is filed as biochemical. To be noted: JAK3 0.0125 nM.
Chain of human JAK3 (P52333 whole entry): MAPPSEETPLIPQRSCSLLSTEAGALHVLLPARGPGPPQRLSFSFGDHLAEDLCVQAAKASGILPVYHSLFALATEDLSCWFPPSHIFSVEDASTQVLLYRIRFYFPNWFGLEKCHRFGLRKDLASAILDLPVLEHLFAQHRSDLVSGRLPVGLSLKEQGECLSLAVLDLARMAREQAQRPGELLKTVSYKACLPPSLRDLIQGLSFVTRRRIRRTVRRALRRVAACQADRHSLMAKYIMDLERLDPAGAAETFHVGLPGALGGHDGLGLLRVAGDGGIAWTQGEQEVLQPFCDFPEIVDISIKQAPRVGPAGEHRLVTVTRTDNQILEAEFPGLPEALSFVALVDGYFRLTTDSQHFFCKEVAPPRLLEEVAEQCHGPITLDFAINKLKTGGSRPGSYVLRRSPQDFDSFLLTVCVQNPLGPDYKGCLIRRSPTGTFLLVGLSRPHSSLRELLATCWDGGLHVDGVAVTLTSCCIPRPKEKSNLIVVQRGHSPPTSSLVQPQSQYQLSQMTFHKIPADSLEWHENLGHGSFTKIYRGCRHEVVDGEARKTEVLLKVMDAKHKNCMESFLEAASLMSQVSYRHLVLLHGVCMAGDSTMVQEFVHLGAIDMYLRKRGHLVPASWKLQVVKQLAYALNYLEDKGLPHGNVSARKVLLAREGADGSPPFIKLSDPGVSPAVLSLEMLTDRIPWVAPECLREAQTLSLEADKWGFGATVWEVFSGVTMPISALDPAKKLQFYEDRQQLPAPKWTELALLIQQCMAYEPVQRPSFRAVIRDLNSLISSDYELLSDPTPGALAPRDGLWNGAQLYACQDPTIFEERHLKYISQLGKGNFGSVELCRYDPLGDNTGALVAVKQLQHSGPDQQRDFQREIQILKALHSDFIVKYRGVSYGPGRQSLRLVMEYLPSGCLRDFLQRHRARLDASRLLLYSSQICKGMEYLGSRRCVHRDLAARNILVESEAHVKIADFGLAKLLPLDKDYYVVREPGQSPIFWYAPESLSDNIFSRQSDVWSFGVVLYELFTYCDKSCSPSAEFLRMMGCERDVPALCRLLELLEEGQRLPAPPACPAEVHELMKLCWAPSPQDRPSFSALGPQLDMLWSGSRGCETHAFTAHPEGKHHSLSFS
The target of the next test is human JAK2 (Homo sapiens (Human), UniProt O60674). The test is described as follows: JAK2 TR-FRET kinase assay. It is filed as biochemical. To be noted: JAK2 0.025 nM. In general terms: Time-resolved FRET reads energy transfer from a long-lived donor to a nearby acceptor.
Chain of human JAK2 (O60674 whole entry): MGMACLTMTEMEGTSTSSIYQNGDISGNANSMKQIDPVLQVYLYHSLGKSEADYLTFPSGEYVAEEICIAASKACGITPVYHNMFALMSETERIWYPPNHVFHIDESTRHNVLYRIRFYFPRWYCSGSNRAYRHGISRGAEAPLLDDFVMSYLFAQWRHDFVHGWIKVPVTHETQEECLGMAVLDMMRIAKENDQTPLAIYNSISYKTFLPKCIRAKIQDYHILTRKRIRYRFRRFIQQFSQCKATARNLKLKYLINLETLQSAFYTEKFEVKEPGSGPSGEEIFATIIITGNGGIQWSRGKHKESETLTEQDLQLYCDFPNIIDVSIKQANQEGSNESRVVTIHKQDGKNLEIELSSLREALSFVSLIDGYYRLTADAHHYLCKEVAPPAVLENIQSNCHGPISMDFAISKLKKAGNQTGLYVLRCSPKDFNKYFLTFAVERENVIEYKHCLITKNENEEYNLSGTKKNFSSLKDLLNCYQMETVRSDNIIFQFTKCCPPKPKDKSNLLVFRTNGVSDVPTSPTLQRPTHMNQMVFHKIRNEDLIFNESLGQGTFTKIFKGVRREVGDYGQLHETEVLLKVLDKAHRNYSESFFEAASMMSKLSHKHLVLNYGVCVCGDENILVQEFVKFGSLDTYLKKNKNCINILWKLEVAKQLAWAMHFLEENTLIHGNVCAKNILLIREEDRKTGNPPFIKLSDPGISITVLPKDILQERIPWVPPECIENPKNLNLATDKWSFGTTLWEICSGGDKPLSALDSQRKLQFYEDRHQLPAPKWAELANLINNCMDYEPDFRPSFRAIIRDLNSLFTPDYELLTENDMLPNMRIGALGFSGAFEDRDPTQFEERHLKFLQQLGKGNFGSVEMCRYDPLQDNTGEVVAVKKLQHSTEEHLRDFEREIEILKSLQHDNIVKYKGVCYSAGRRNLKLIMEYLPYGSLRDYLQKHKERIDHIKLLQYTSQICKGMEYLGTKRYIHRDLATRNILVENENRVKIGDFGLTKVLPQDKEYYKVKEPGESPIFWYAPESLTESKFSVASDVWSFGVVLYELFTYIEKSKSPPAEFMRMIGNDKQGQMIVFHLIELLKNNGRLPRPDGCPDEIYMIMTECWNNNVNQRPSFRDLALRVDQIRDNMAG
A further test addresses human JAK1 (Homo sapiens (Human), UniProt P23458). As to the kind of experiment: JAK1 TR-FRET kinase assay. It is filed as biochemical. To be noted: TR-FRET, JAK1 2.5 nM.

For orientation: IC50 means the point on the concentration scale where inhibition reaches its midpoint.

Chain of TYK2 JH2 domain (P29597 589-875): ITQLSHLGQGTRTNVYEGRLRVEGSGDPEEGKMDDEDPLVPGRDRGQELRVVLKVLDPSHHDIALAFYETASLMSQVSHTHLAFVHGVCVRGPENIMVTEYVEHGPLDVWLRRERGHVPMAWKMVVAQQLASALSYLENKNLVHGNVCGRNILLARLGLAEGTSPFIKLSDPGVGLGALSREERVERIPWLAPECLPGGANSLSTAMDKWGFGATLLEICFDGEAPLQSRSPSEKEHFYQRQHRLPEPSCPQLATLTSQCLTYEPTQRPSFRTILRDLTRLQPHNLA
Chain of human JAK1 (P23458 whole entry): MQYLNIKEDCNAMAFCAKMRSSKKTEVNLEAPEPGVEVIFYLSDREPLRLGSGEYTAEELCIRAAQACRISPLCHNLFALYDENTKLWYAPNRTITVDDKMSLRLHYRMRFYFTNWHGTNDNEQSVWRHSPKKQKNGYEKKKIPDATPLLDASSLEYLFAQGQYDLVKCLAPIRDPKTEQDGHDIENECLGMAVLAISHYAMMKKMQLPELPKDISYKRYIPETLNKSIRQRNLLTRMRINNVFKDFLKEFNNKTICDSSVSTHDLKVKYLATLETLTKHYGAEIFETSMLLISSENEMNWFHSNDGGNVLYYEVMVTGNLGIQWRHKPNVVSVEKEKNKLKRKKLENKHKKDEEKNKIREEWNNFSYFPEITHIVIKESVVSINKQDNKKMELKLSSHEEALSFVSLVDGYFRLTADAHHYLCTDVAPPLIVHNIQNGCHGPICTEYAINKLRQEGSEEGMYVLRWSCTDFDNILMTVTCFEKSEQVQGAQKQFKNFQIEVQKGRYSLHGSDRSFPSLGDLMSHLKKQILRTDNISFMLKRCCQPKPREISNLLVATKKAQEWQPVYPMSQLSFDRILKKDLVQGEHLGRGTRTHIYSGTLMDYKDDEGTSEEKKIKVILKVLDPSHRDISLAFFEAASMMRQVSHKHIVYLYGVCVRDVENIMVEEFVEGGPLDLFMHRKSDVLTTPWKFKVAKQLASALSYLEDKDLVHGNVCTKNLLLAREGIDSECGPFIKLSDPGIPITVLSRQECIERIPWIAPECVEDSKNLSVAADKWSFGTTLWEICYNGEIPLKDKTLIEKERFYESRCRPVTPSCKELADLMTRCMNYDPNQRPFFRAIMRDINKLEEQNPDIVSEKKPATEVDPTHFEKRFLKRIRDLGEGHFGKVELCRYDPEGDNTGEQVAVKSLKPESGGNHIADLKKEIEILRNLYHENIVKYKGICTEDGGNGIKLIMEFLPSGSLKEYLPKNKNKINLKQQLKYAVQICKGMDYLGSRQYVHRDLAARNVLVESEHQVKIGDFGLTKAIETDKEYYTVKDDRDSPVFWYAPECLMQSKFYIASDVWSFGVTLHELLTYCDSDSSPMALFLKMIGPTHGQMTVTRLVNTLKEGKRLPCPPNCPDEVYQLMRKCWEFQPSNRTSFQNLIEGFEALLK

Turning to `CCC(=O)c1cnc(Nc2ccc(-c3ncn(C)n3)cn2)cc1Nc1cccc(-c2ncn(C)n2)c1OC` [Compound 15C], the IC50 at TYK2 JH2 domain is under 5 nM; against human JAK3 it was at least 500 nM; against human JAK2 it was at least 500 nM; on human JAK1, at least 500 nM.

Regarding `CCC(=O)c1cnc(Nc2ccc(P(C)(C)=O)cn2)cc1Nc1cccc(-c2ncn(C)n2)c1OC` [Compound 15DD], the IC50 on TYK2 JH2 domain is 5 to 50 nM; on human JAK3, at least 500 nM; against human JAK2 it was at least 500 nM; at human JAK1, at least 500 nM.

On to `CCC(=O)c1cnc(Nc2ccc(-c3cnn(C)c3)cn2)cc1Nc1cccc(-c2ncn(C)n2)c1OC` [Compound 15D], for which the IC50 at TYK2 JH2 domain was under 5 nM; on human JAK3 it was at least 500 nM; on human JAK2, at least 500 nM; on human JAK1, at least 500 nM.

Consider `CCC(=O)c1cnc(Nc2cc(-c3cn(C)cn3)ccn2)cc1Nc1cccc(-c2ncn(C)n2)c1OC` [Compound 15E], for which the IC50 at TYK2 JH2 domain was under 5 nM; against human JAK3, at least 500 nM; against human JAK2, at least 500 nM; on human JAK1 it was at least 500 nM.

On to `CCC(=O)c1cnc(Nc2cc(-c3ncn(C)n3)ccn2)cc1Nc1cccc(-c2ncn(C)n2)c1OC` [Compound 15F], for which the IC50 was under 5 nM on TYK2 JH2 domain, at least 500 nM at human JAK3, at least 500 nM on human JAK2 and at least 500 nM on human JAK1.

`CCC(=O)c1cnc(Nc2cc(-c3cnn(C)c3)ccn2)cc1Nc1cccc(-c2ncn(C)n2)c1OC` [Compound 15G]: the IC50 at TYK2 JH2 domain is under 5 nM; at human JAK3, at least 500 nM; on human JAK2 it was at least 500 nM; on human JAK1, at least 500 nM.

In the case of `CCC(=O)c1cnc(Nc2ccc(-n3cccn3)cn2)cc1Nc1cccc(-c2ncn(C)n2)c1OC` [Compound 15H], the IC50 is under 5 nM at TYK2 JH2 domain, at least 500 nM on human JAK3, at least 500 nM against human JAK2 and at least 500 nM against human JAK1.

Turning to `CCC(=O)c1cnc(Nc2ccc(-n3ccnc3)cn2)cc1Nc1cccc(-c2ncn(C)n2)c1OC` [Compound 15I], the IC50 on TYK2 JH2 domain is under 5 nM; against human JAK3 it was at least 500 nM; on human JAK2, at least 500 nM; against human JAK1, at least 500 nM.

As for `CCC(=O)c1cnc(Nc2ccc(-c3cn(C)cn3)cn2)cc1Nc1nccc(-c2ncn(C)n2)c1OC` [Compound 15J], the IC50 on TYK2 JH2 domain was under 5 nM; at human JAK3, at least 500 nM; against human JAK2 it was at least 500 nM; against human JAK1 it was at least 500 nM.

As to `COc1c(Nc2cc(Nc3ccc(-c4cn(C)cn4)cn3)ncc2C(=O)C2CC2)cccc1-c1ncn(C)n1` [Compound 15K], the IC50 at TYK2 JH2 domain is 5 to 50 nM; at human JAK3 it was at least 500 nM; against human JAK2, at least 500 nM; against human JAK1, at least 500 nM.

For `COc1c(-c2ncn(C)n2)ccnc1Nc1cc(Nc2ccc(-c3cn(C)cn3)cn2)ncc1C(=O)C1CC1` [Compound 15L], the IC50 at TYK2 JH2 domain was 5 to 50 nM; against human JAK3 it was at least 500 nM; on human JAK2, at least 500 nM; on human JAK1 it was at least 500 nM.

Turning to `CCC(=O)c1cnc(Nc2ccc(-c3ncn(C)n3)cn2)cc1Nc1nccc(-c2ncn(C)n2)c1OC` [Compound 15M], the IC50 on TYK2 JH2 domain was 5 to 50 nM; on human JAK3, at least 500 nM; against human JAK2 it was at least 500 nM; on human JAK1 it was at least 500 nM.

With `COc1c(Nc2cc(Nc3ccc(-c4ncn(C)n4)cn3)ncc2C(=O)C2CC2)cccc1-c1ncn(C)n1` [Compound 15N], the half-maximal inhibitory concentration (IC50) is 5 to 50 nM at TYK2 JH2 domain, at least 500 nM at human JAK3, at least 500 nM against human JAK2 and at least 500 nM at human JAK1.

For the molecule `COc1c(-c2ncn(C)n2)ccnc1Nc1cc(Nc2ccc(-c3ncn(C)n3)cn2)ncc1C(=O)C1CC1` [Compound 15O], the IC50 was 5 to 50 nM at TYK2 JH2 domain, at least 500 nM against human JAK3, at least 500 nM on human JAK2 and at least 500 nM against human JAK1.

Consider `CCC(=O)c1cnc(Nc2ccc(-n3ccnc3)cn2)cc1Nc1nccc(-c2ncn(C)n2)c1OC` [Compound 15P], for which the IC50 at TYK2 JH2 domain is under 5 nM; against human JAK3 it was at least 500 nM; at human JAK2, at least 500 nM; against human JAK1, at least 500 nM.

In the case of `COc1c(Nc2cc(Nc3ccc(-n4ccnc4)cn3)ncc2C(=O)C2CC2)cccc1-c1ncn(C)n1` [Compound 15Q], the IC50 at TYK2 JH2 domain was under 5 nM; against human JAK3, at least 500 nM; on human JAK2, at least 500 nM; against human JAK1, at least 500 nM.

On to `COc1c(-c2ncn(C)n2)ccnc1Nc1cc(Nc2ccc(-n3ccnc3)cn2)ncc1C(=O)C1CC1` [Compound 15R], for which the IC50 on TYK2 JH2 domain is 5 to 50 nM; against human JAK3 it was at least 500 nM; against human JAK2, at least 500 nM; at human JAK1, at least 500 nM.

For `CCC(=O)c1cnc(Nc2ccn(-c3ccccc3)c(=O)n2)cc1Nc1nccc(-c2ncn(C)n2)c1OC` [Compound 15S], the IC50 on TYK2 JH2 domain was 5 to 50 nM; against human JAK3, at least 500 nM; at human JAK2 it was at least 500 nM; against human JAK1 it was at least 500 nM.

Take `[2H]C([2H])([2H])CC(=O)c1cnc(Nc2ccn(-c3ccccc3)c(=O)n2)cc1Nc1cccc(-c2ncn(C)n2)c1OC` [Compound 15T]: the IC50 at TYK2 JH2 domain was under 5 nM; against human JAK3, at least 500 nM; against human JAK2 it was at least 500 nM; against human JAK1, at least 500 nM.

For the molecule `CCC(=O)c1cnc(Nc2ccc(-n3ccccc3=O)cn2)cc1Nc1nccc(-c2ncn(C)n2)c1OC` [Compound 15U], the IC50 at TYK2 JH2 domain was 5 to 50 nM; on human JAK3, at least 500 nM; against human JAK2, at least 500 nM; at human JAK1 it was at least 500 nM.

As for `CCC(=O)c1cnc(Nc2ccc(-n3ccncc3=O)cn2)cc1Nc1cccc(-c2ncn(C)n2)c1OC` [Compound 15V], the IC50 was under 5 nM on TYK2 JH2 domain, at least 500 nM against human JAK3, at least 500 nM against human JAK2 and at least 500 nM at human JAK1.

For `CCC(=O)c1cnc(Nc2ccc(-c3ccc[nH]c3=O)cn2)cc1Nc1cccc(-c2ncn(C)n2)c1OC` [Compound 15W], the IC50 is 5 to 50 nM at TYK2 JH2 domain, 50 to 500 nM against human JAK3, 50 to 500 nM at human JAK2 and at least 500 nM at human JAK1.

Consider `CCC(=O)c1cnc(Nc2ccc(-n3ccnc(C)c3=O)cn2)cc1Nc1cccc(-c2ncn(C)n2)c1OC` [Compound 15X], for which the IC50 at TYK2 JH2 domain is 5 to 50 nM; at human JAK3, 50 to 500 nM; at human JAK2, 50 to 500 nM; against human JAK1, at least 500 nM.

Take `CCC(=O)c1cnc(Nc2ccc(-n3cnccc3=O)cn2)cc1Nc1cccc(-c2ncn(C)n2)c1OC` [Compound 15Y]: the IC50 at TYK2 JH2 domain was under 5 nM; against human JAK3, 50 to 500 nM; at human JAK2 it was 50 to 500 nM; at human JAK1, at least 500 nM.

Take `CCC(=O)c1cnc(Nc2ccc(-n3nc(C)ccc3=O)cn2)cc1Nc1cccc(-c2ncn(C)n2)c1OC` [Compound 15Z]: the IC50 at TYK2 JH2 domain is 5 to 50 nM; against human JAK3, at least 500 nM; at human JAK2, at least 500 nM; at human JAK1 it was at least 500 nM.

Consider `CCC(=O)c1cnc(Nc2ccc(-c3cccn(C)c3=O)cn2)cc1Nc1cccc(-c2ncn(C)n2)c1OC` [Compound 16A, 6′-((4-((2-methoxy-3-(1-methyl-1H-1,2,4-triazol-3-yl)phenyl)amino)-5-propionylpyridin-2-yl)amino)-1-methyl-[3,3′-bipyridin]-2(1H)-one], for which the IC50 on TYK2 JH2 domain was under 5 nM; against human JAK3 it was 50 to 500 nM; at human JAK2, 50 to 500 nM; at human JAK1, at least 500 nM.

Regarding `CCC(=O)c1cnc(Nc2cc(CN(C)C)ncn2)cc1Nc1cccc(-c2ncn(C)n2)c1OC` [Compound 17A, 1-(6-((6-((dimethylamino)methyl)pyrimidin-4-yl)amino)-4-((2-methoxy-3-(1-methyl-1H-1,2,4-triazol-3-yl)phenyl)amino)pyridin-3-yl)propan-1-one], the IC50 on TYK2 JH2 domain was under 5 nM; against human JAK3, at least 500 nM; at human JAK2, at least 500 nM; against human JAK1, at least 500 nM.

Consider `CCC(=O)c1cnc(Nc2ccc(O[C@@H]3CCOC3)c(C)n2)cc1Nc1cccc(-c2ncn(C)n2)c1OC` [Compound 18AAAA], for which the IC50 is under 5 nM at TYK2 JH2 domain, 50 to 500 nM against human JAK3, 50 to 500 nM at human JAK2 and at least 500 nM against human JAK1.

Consider `CCC(=O)c1cnc(Nc2cnc(O[C@H]3CN(C)C[C@@H]3F)cn2)cc1Nc1cccc(-c2ncn(C)n2)c1OC` [Compound 18AAA], for which the IC50 was 5 to 50 nM on TYK2 JH2 domain, at least 500 nM against human JAK3, at least 500 nM on human JAK2 and at least 500 nM against human JAK1.

Turning to `CCC(=O)c1cnc(Nc2ccc(OCC3COC3)cn2)cc1Nc1cccc(-c2ncn(C)n2)c1OC` [Compound 18AA], the IC50 was under 5 nM at TYK2 JH2 domain, 50 to 500 nM against human JAK3, 50 to 500 nM on human JAK2 and at least 500 nM at human JAK1.

`CCC(=O)c1cnc(Nc2ncc(OC3COC3)cc2F)cc1Nc1cccc(-c2ncn(C)n2)c1OC` [Compound 18BBBB]: the IC50 was 5 to 50 nM on TYK2 JH2 domain, at least 500 nM against human JAK3, at least 500 nM against human JAK2 and at least 500 nM against human JAK1.

Regarding `CCC(=O)c1cnc(Nc2cnc(O[C@H]3CN(C)C[C@H]3F)cn2)cc1Nc1cccc(-c2ncn(C)n2)c1OC` [Compound 18BBB], the IC50 on TYK2 JH2 domain is 5 to 50 nM; on human JAK3, at least 500 nM; at human JAK2, at least 500 nM; at human JAK1, at least 500 nM.

With `CCC(=O)c1cnc(Nc2ccc(O[C@@H]3CCOC3)cn2)cc1Nc1cccc(-c2ncn(C)n2)c1OC` [Compound 18BB], the IC50 at TYK2 JH2 domain is under 5 nM; against human JAK3, at least 500 nM; on human JAK2, at least 500 nM; against human JAK1 it was at least 500 nM.

With `COc1c(Nc2cc(Nc3ccc(OCCO)cn3)ncc2C(=O)C2CC2)cccc1-c1ncn(C)n1` [Compound 18B], the IC50 at TYK2 JH2 domain is under 5 nM; against human JAK3, at least 500 nM; against human JAK2, at least 500 nM; against human JAK1 it was at least 500 nM.
